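Cultured in 96-well plates, cells were exposed to test compound for 48 hours across five concentrations. TGI: total growth inhibition.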
Tests used:
Experiment in all cases: growth of human tumour cells (NCI), 48 h
SF-539 CNS = system: SF-539 CNS
UACC-62 melanoma = system: UACC-62 melanoma
MOLT-4 leukemia = system: MOLT-4 leukemia
UACC-257 melanoma = system: UACC-257 melanoma
SK-MEL-28 melanoma = system: SK-MEL-28 melanoma
CCRF-CEM leukemia = system: CCRF-CEM leukemia
U251 CNS = system: U251 CNS
HS 578T breast = system: HS 578T breast
T-47D breast = system: T-47D breast
OVCAR-4 ovarian = system: OVCAR-4 ovarian
SK-MEL-2 melanoma = system: SK-MEL-2 melanoma
MCF7 breast = system: MCF7 breast
DU-145 prostate = system: DU-145 prostate
COLO 205 colon = system: COLO 205 colon
TK-10 renal = system: TK-10 renal
OVCAR-3 ovarian = system: OVCAR-3 ovarian
SNB-19 CNS = system: SNB-19 CNS
IGROV1 ovarian = system: IGROV1 ovarian
LOX IMVI melanoma = system: LOX IMVI melanoma
EKVX NSCLC = system: EKVX NSCLC
HL-60(TB) leukemia = system: HL-60(TB) leukemia
ACHN renal = system: ACHN renal
M14 melanoma = system: M14 melanoma
HT29 colon = system: HT29 colon
UO-31 renal = system: UO-31 renal
SF-295 CNS = system: SF-295 CNS
HCT-116 colon = system: HCT-116 colon
MDA-MB-231 breast = system: MDA-MB-231 breast
A549 NSCLC = system: A549 NSCLC
NCI-H23 lung = system: NCI-H23 lung
A498 renal = system: A498 renal
RPMI-8226 leukemia = system: RPMI-8226 leukemia
SW-620 colon = system: SW-620 colon
CAKI-1 renal = system: CAKI-1 renal
SN12C renal = system: SN12C renal
SR leukemia = system: SR leukemia
BT-549 breast = system: BT-549 breast
NCI-H460 lung = system: NCI-H460 lung
NCI-H226 lung = system: NCI-H226 lung
MALME-3M melanoma = system: MALME-3M melanoma
MDA-MB-435 = system: MDA-MB-435
SK-MEL-5 melanoma = system: SK-MEL-5 melanoma
HOP-62 NSCLC = system: HOP-62 NSCLC
PC-3 prostate = system: PC-3 prostate
OVCAR-8 ovarian = system: OVCAR-8 ovarian
SF-268 CNS = system: SF-268 CNS
SK-OV-3 ovarian = system: SK-OV-3 ovarian
NCI-H522 lung = system: NCI-H522 lung
HCT-15 colon = system: HCT-15 colon
786-0 renal = system: 786-0 renal
KM12 colon = system: KM12 colon
RXF 393 renal = system: RXF 393 renal
OVCAR-5 ovarian = system: OVCAR-5 ovarian
HCC-2998 colon = system: HCC-2998 colon
NCI/ADR-RES ovarian = system: NCI/ADR-RES ovarian
MDA-N = system: MDA-N
HOP-92 NSCLC = system: HOP-92 NSCLC
SNB-75 CNS = system: SNB-75 CNS
K-562 leukemia = system: K-562 leukemia

## COC(=O)/C=C/CC(=O)NS(C)(=O)=O
SF-539 CNS
  TGI: > 10 µM
UACC-62 melanoma
  TGI: > 10 µM
MOLT-4 leukemia
  TGI: > 10 µM
UACC-257 melanoma
  TGI: > 10 µM
SK-MEL-28 melanoma
  TGI: > 10 µM
CCRF-CEM leukemia
  TGI: > 10 µM
U251 CNS
  TGI: > 10 µM
HS 578T breast
  TGI: > 10 µM
T-47D breast
  TGI: > 10 µM
OVCAR-4 ovarian
  TGI: > 10 µM
SK-MEL-2 melanoma
  TGI: > 10 µM
MCF7 breast
  TGI: > 10 µM
DU-145 prostate
  TGI: > 10 µM
COLO 205 colon
  TGI: > 10 µM
TK-10 renal
  TGI: > 10 µM
OVCAR-3 ovarian
  TGI: > 10 µM
SNB-19 CNS
  TGI: > 10 µM
IGROV1 ovarian
  TGI: > 10 µM
LOX IMVI melanoma
  TGI: > 10 µM
EKVX NSCLC
  TGI: > 10 µM
HL-60(TB) leukemia
  TGI: > 10 µM
ACHN renal
  TGI: > 10 µM
M14 melanoma
  TGI: > 10 µM
HT29 colon
  TGI: > 10 µM
UO-31 renal
  TGI: > 10 µM
SF-295 CNS
  TGI: > 10 µM
HCT-116 colon
  TGI: > 10 µM
MDA-MB-231 breast
  TGI: > 10 µM
A549 NSCLC
  TGI: > 10 µM
NCI-H23 lung
  TGI: > 10 µM
A498 renal
  TGI: > 10 µM
RPMI-8226 leukemia
  TGI: > 10 µM
SW-620 colon
  TGI: > 10 µM
CAKI-1 renal
  TGI: > 10 µM
SN12C renal
  TGI: > 10 µM
SR leukemia
  TGI: > 10 µM
BT-549 breast
  TGI: > 10 µM
NCI-H460 lung
  TGI: > 10 µM
NCI-H226 lung
  TGI: > 10 µM
MALME-3M melanoma
  TGI: > 10 µM
MDA-MB-435
  TGI: > 10 µM
SK-MEL-5 melanoma
  TGI: > 10 µM
HOP-62 NSCLC
  TGI: > 10 µM
PC-3 prostate
  TGI: > 10 µM
OVCAR-8 ovarian
  TGI: > 10 µM
SF-268 CNS
  TGI: > 10 µM
SK-OV-3 ovarian
  TGI: > 10 µM
NCI-H522 lung
  TGI: > 10 µM
HCT-15 colon
  TGI: > 10 µM
786-0 renal
  TGI: > 10 µM
KM12 colon
  TGI: > 10 µM
RXF 393 renal
  TGI: > 10 µM
OVCAR-5 ovarian
  TGI: > 10 µM
HCC-2998 colon
  TGI: > 10 µM
NCI/ADR-RES ovarian
  TGI: > 10 µM
MDA-N
  TGI: > 10 µM

## COC(=O)C(=O)C(C(=O)C(=O)Nc1ccc([N+](=O)[O-])cc1[N+](=O)[O-])c1nc2ccc(Cl)cc2[nH]c1=O (configuration not stated)
HOP-92 NSCLC
  TGI: > 100 µM
SF-539 CNS
  TGI: > 100 µM
UACC-62 melanoma
  TGI: > 100 µM
MOLT-4 leukemia
  TGI: > 100 µM
UACC-257 melanoma
  TGI: > 100 µM
SK-MEL-28 melanoma
  TGI: > 100 µM
U251 CNS
  TGI: > 100 µM
HS 578T breast
  TGI: 90.8 µM
T-47D breast
  TGI: > 100 µM
OVCAR-4 ovarian
  TGI: > 100 µM
SK-MEL-2 melanoma
  TGI: > 100 µM
MCF7 breast
  TGI: > 100 µM
DU-145 prostate
  TGI: > 100 µM
COLO 205 colon
  TGI: > 100 µM
OVCAR-3 ovarian
  TGI: > 100 µM
SNB-19 CNS
  TGI: > 100 µM
LOX IMVI melanoma
  TGI: > 100 µM
HL-60(TB) leukemia
  TGI: > 100 µM
ACHN renal
  TGI: > 100 µM
M14 melanoma
  TGI: > 100 µM
HT29 colon
  TGI: > 100 µM
UO-31 renal
  TGI: > 100 µM
SF-295 CNS
  TGI: > 100 µM
HCT-116 colon
  TGI: > 100 µM
MDA-MB-231 breast
  TGI: > 100 µM
A549 NSCLC
  TGI: > 100 µM
NCI-H23 lung
  TGI: > 100 µM
A498 renal
  TGI: > 100 µM
RPMI-8226 leukemia
  TGI: > 100 µM
SW-620 colon
  TGI: > 100 µM
CAKI-1 renal
  TGI: > 100 µM
SN12C renal
  TGI: > 100 µM
SR leukemia
  TGI: > 100 µM
BT-549 breast
  TGI: > 100 µM
NCI-H460 lung
  TGI: > 100 µM
NCI-H226 lung
  TGI: > 100 µM
MDA-MB-435
  TGI: > 100 µM
SK-MEL-5 melanoma
  TGI: > 100 µM
PC-3 prostate
  TGI: > 100 µM
OVCAR-8 ovarian
  TGI: > 100 µM
SNB-75 CNS
  TGI: 73.1 µM
SF-268 CNS
  TGI: > 100 µM
SK-OV-3 ovarian
  TGI: > 100 µM
K-562 leukemia
  TGI: > 100 µM
HCT-15 colon
  TGI: > 100 µM
786-0 renal
  TGI: > 100 µM
KM12 colon
  TGI: > 100 µM
RXF 393 renal
  TGI: > 100 µM
OVCAR-5 ovarian
  TGI: > 100 µM
HCC-2998 colon
  TGI: > 100 µM
NCI/ADR-RES ovarian
  TGI: > 100 µM
MDA-N
  TGI: > 100 µM

## Cc1ccc(-c2nc3cc(N4CCN(C)CC4)c(F)cc3[nH]2)cc1
HOP-92 NSCLC
  TGI: > 100 µM
UACC-62 melanoma
  TGI: 31.3 µM
MOLT-4 leukemia
  TGI: > 100 µM
UACC-257 melanoma
  TGI: 34.3 µM
SK-MEL-28 melanoma
  TGI: 61.3 µM
CCRF-CEM leukemia
  TGI: > 100 µM
U251 CNS
  TGI: > 100 µM
HS 578T breast
  TGI: 29.1 µM
T-47D breast
  TGI: 50.7 µM
OVCAR-4 ovarian
  TGI: 59.3 µM
SK-MEL-2 melanoma
  TGI: 32 µM
MCF7 breast
  TGI: 30.3 µM
DU-145 prostate
  TGI: > 100 µM
COLO 205 colon
  TGI: 34.5 µM
TK-10 renal
  TGI: > 100 µM
SNB-19 CNS
  TGI: 58.9 µM
IGROV1 ovarian
  TGI: 90 µM
LOX IMVI melanoma
  TGI: 94.3 µM
EKVX NSCLC
  TGI: 70 µM
HL-60(TB) leukemia
  TGI: 46 µM
ACHN renal
  TGI: 70.5 µM
M14 melanoma
  TGI: 31 µM
UO-31 renal
  TGI: 27.4 µM
SF-295 CNS
  TGI: 30.4 µM
HCT-116 colon
  TGI: 50 µM
MDA-MB-231 breast
  TGI: > 100 µM
A549 NSCLC
  TGI: 49 µM
NCI-H23 lung
  TGI: > 100 µM
A498 renal
  TGI: 91.4 µM
RPMI-8226 leukemia
  TGI: 75.5 µM
SW-620 colon
  TGI: > 100 µM
CAKI-1 renal
  TGI: > 100 µM
SN12C renal
  TGI: > 100 µM
SR leukemia
  TGI: > 100 µM
BT-549 breast
  TGI: 55.8 µM
NCI-H460 lung
  TGI: 32.6 µM
NCI-H226 lung
  TGI: 38.3 µM
MALME-3M melanoma
  TGI: 31.2 µM
MDA-MB-435
  TGI: 48.1 µM
SK-MEL-5 melanoma
  TGI: 25.1 µM
HOP-62 NSCLC
  TGI: 29.3 µM
PC-3 prostate
  TGI: > 100 µM
SF-268 CNS
  TGI: 43.6 µM
SK-OV-3 ovarian
  TGI: 57.7 µM
K-562 leukemia
  TGI: > 100 µM
NCI-H522 lung
  TGI: 31.9 µM
HCT-15 colon
  TGI: 21 µM
786-0 renal
  TGI: 39 µM
KM12 colon
  TGI: 27 µM
RXF 393 renal
  TGI: 38.4 µM
OVCAR-5 ovarian
  TGI: 60.2 µM
HCC-2998 colon
  TGI: 24.6 µM
NCI/ADR-RES ovarian
  TGI: > 100 µM
MDA-N
  TGI: 95.7 µM

Reference: PubChem BioAssay (NCI)
